One block for each compound: values may come before it.
Assays:
[1] = system: MAP-rich tubulin; assay: Tubulin polymerization test procedure with MAP-rich tubulin; format: biochemical, bovine; conditions: MAP-rich tubulin with 1 mM GTP, compound 0.3 μM, at 20 min
Method: (§1) Medium is RPMI-1640 with L-glutamine, supplemented with 10% heat-inactivated fetal calf serum, 100 units/mL penicillin, and 100 μg/mL streptomycin (Gibco, Grand Island, N.Y.). Microtubule-associated protein (MAP)-rich tubulin, containing about 70% tubulin and 30% MAPs (#ML113), and highly purified tubulin (>99% pure, #TL238), both from bovine brain, are obtained from Cytoskeleton, Inc., Denver, Colo. PEM buffer (80 mM piperazine-N,N′-bis[2-ethanesulfonic acid], pH 6.9, 1 mM ethylene glycol-bis(β-aminoethyl ether)-N,N,N′,N′-tetraacetic acid, 1 mM magnesium chloride) and guanosine 5′-triphosphate (GTP) are also obtained from Cytoskeleton. [^3H]paclitaxel, specific activity 14.7 Ci/mmol, is purchased from Moravek Biochemicals (Brea, Calif.). [^3H]vinblastine, specific activity 9.60 Ci/mmol and MicroSpin G-50 columns are obtained from Amersham Biosciences (Piscataway, N.J.). […] Other reagents are obtained from Sigma (St. Louis, Mo.).
MAP-rich tubulin is dissolved in ice-cold PEM buffer containing 1 mM GTP (GPEM buffer) at a concentration of 1.3 mg/mL. The solution is centrifuged at top speed in an Eppendorf model 5415C microcentrifuge (Brinkmann Instruments, Westbury, N.Y.) for 10 min at 40 immediately before use. The tubulin solution is added to wells of a ½-area 96-well plate (Costar No. 3696, Corning, Inc., Corning, N.Y.) already containing the compounds of interest. Each compound is tested in duplicate at a final concentration of 0.3 μM in a volume of 110 μL per well. The final DMSO concentration in all wells is 0.3%. Control reactions, which receive compound solvent only, are done in quadruplicate. The plate is put in a SpectraMax Plus plate reader (Molecular Devices Corp. Sunnyvale, Calif.) thermostated at 240 and the absorbance of each well at 340 nm, a measure of the appearance of turbidity due to tubulin polymer formation, is determined every minute for 60 minutes. The absorbance at time 0 for each well is subtracted from each of the subsequent absorbance readings for that well, and then the duplicates are averaged.
In this assay, control reactions with MAP-rich tubulin show an S-shaped absorbance profile characterized by three phases: first, a lag phase during which no change in absorbance occurs; second, a polymerization phase in which absorbance increases; and third, a plateau phase in which absorbance has reached a maximum and little or no further change occurs. Polymerization enhancers such as paclitaxel and docetaxel shorten or eliminate the lag phase, increase the rate of the polymerization phase, and often increase the height of the plateau. […] This has been expressed quantitatively in Table 6 by dividing the mean A340 of each sample at 20 min by the mean A340 of the control at 20 min to give a fold enhancement over control. […]

[2] = system: pure tubulin; assay: Tubulin polymerization test procedure with pure tubulin; format: biochemical, bovine; conditions: pure tubulin without added GTP
Method: as §1
The procedure with pure tubulin is similar except for the following changes. […] The supernatant after centrifugation is dispensed to a ½-area 96-well plate already containing compounds. Each compound is tested in duplicate at a final concentration of 24.3 μM. The plate reader μs thermostated at 35°.

[3] = system: HL-60/ADR cells; assay: MTS cytotoxicity test procedure with HL-60/ADR cells; format: cell-based, human; conditions: Homo sapiens, HL60/ADR; MTS assay, HL-60/ADR cells, means of 2 independent experiments
Source text: (§2) Human cancer cell lines, unless otherwise noted, are obtained from the American Type Culture Collection (Rockville, Md.). The following drug-sensitive parental cell lines, and their derived drug-resistant counterparts, are obtained from the originators as listed: (a) S1 (parental line from a subclone of human colon carcinoma line LS174T) and derived S1-M1-3.2 (herein called S1-M1) which expresses the MXR drug transporter protein, are provided by Dr. L. Greenberger, Wyeth Research (Rabindran, S. K., He, H., Singh, M., Brown, E., Collins, K. I., Annable, T., and Greenberger, L. M. Reversal of a novel multidrug resistance mechanism in human colon carcinoma cells by fumitremorgin C. Cancer Res., 58: 5850-5858,1998); (b) parental HL-60 human promyelocytic leukemia line and derived HL-60/ADR, which expresses the MRP1 drug transporter protein, are provided by Dr. M. Center, University of Kansas (McGrath, T., and Center, M. S. Adriamycin resistance in HL60 cells in the absence of detectable P-glycoprotein. Biochem. Biophys. […] J. Biol. Chem., 261: 7762-7770, 1986) via Dr. L. Greenberger, Wyeth Research.
(§3) The MTS assay, which is sold in kit form by Promega (Madison, Wis.; CellTiter 96 AQueous Non-Radioactive Cell Proliferation Assay), is based on the conversion by viable cells, but not by dead cells, of the tetrazolium salt, MTS (3-(4,5-dimethylthiazol-2-yl)-5-(3-carboxymethoxyphenyl)-2-(4-sulphophenyl)-2H-tetrazolium, inner salt), into a water-soluble colored formazan which is detected by spectrophotometry. Compounds are tested at nine concentrations, in order to determine IC50 values. For the test procedure, cells are harvested by trypsinization (or, in the case of non-adherent cells, by simple resuspension), washed, counted and distributed to wells of 96-well flat-bottom microtiter plates at 1000 cells per well in 200 μL of medium. In addition, one row of wells on a separate plate receives cells as above (“time 0” plate). All plates are incubated at 370 in humidified 5% CO2 in air for about 24 hr.
(§4) On day 2, compounds for test are diluted and added to wells. Compounds are dissolved in DMSO at 10 mg/mL. For each compound, nine serial 2-fold dilutions are prepared in DMSO. Ten μL of each dilution in DMSO is transferred to 100 μL of medium, mixed well, and then 5 μL of this dilution is transferred in quadruplicate to wells containing cells. […] Plates are returned to the incubator for three days. At the time of drug addition to the experimental plates, the MTS assay is run on the “time 0” plate.
After three days of culture with test compounds (day 5 overall), the MTS assay is done on all wells of the experimental plates. The absorbance values of the quadruplicate sample wells are averaged and divided by the average of the “time 0” values. […] The nine values for each compound are plotted against concentration, and the concentration that produces a relative color yield half way between the maximum and minimum is taken as the IC50 value.
HL-60/ADR cells overexpress the multidrug resistance protein MRP1 which mediates resistance to some chemotherapeutics (Gottesman, M. M., Fojo, T., and Bates, S. E. Multidrug resistance in cancer: role of ATP-dependent transporters. Nature Rev. Cancer, 2: 48-58, 2002). The IC50 values of example 6 of this invention, as well as reference compounds, on HL-60/ADR are compared to values on the sensitive parental HL-60 line.

[4] = system: S1-M1 cells; assay: MTS cytotoxicity test procedure with S1-M1 cells; format: cell-based, human; conditions: Homo sapiens; MTS assay, S1-M1 cells, means of 2 independent experiments
Source text: as §2, §3, §4
(§5) After three days of culture with test compounds (day 5 overall), the MTS assay is done on all wells of the experimental plates. The absorbance values of the quadruplicate sample wells are averaged and divided by the average of the “time 0” values. […]

[5] = system: COLO 205 cells; assay: MTS cytotoxicity test procedure with COLO 205 cells; format: cell-based; conditions: Homo sapiens, 72 h, MTS assay, three days of culture
Method: as §3
On day 2, compounds for test are diluted and added to wells. Compounds are dissolved in DMSO at 10 mg/mL. For each compound, nine serial 2-fold dilutions are prepared in DMSO. Ten μL of each dilution in DMSO is transferred to 100 μL of medium, mixed well, and then 5 μL of this dilution is transferred in quadruplicate to wells containing cells. The final high concentration of each compound is typically 1-5 μM. Plates are returned to the incubator for three days. At the time of drug addition to the experimental plates, the MTS assay is run on the “time 0” plate. This gives the “time 0 MTS value” which is related to the number of viable cells per well at the time of drug addition.
After three days of culture with test compounds (day 5 overall), the MTS assay is done on all wells of the experimental plates. The absorbance values of the quadruplicate sample wells are averaged and divided by the average of the “time 0” values. The average of control wells without drug, divided by the average “time 0” value, gives the maximal relative increase in MTS color yield due to cell growth during the final three days of culture. The average of control wells with high drug concentration, divided by the “time 0” value, gives the minimal relative color yield for cells that were completely killed. The nine values for each compound are plotted against concentration, and the concentration that produces a relative color yield half way between the maximum and minimum is taken as the IC50 value.
COLO 205 is a human colon carcinoma cell line that is used for comparative testing of the examples of this invention and several reference compounds (Table 1). This line is sensitive to paclitaxel and vincristine.

[6] = system: KB-V1 cells; assay: MTS cytotoxicity test procedure with KB-V1 cells; format: cell-based, human; conditions: Homo sapiens, KB-V1; MTS assay, KB VI cells, means of 2 independent experiments
Source text: as §2
The MTS assay, which is sold in kit form by Promega (Madison, Wis.; CellTiter 96 AQueous Non-Radioactive Cell Proliferation Assay), is based on the conversion by viable cells, but not by dead cells, of the tetrazolium salt, MTS (3-(4,5-dimethylthiazol-2-yl)-5-(3-carboxymethoxyphenyl)-2-(4-sulphophenyl)-2H-tetrazolium, inner salt), into a water-soluble colored formazan which is detected by spectrophotometry. Compounds are tested at nine concentrations, in order to determine IC50 values. For the test procedure, cells are harvested by trypsinization (or, in the case of non-adherent cells, by simple resuspension), washed, counted and distributed to wells of 96-well flat-bottom microtiter plates at 1000 cells per well in 200 μL of medium. […]
as §5

SMILES: CC(=O)O[C@@]12CO[C@@H]1C[C@H](O)[C@@]1(C)C(=O)[C@H](O)C3=C(C)[C@@H](OC(=O)[C@H](O)[C@@H](NC(=O)OC(C)(C)C)c4ccccc4)C[C@@](O)([C@@H](OC(=O)c4ccccc4)[C@H]21)C3(C)C [Docetaxel, reference compound]
A340 Compound / A340 Control (fold enhancement over control) [1]: 5.4 | polymerization of pure tubulin without GTP (in words) [2]: able to induce polymerization

SMILES: COc1cccc2c1C(=O)c1c(O)c3c(c(O)c1C2=O)C[C@@](O)(C(=O)CO)C[C@@H]3O[C@H]1C[C@H](N)[C@H](O)[C@H](C)O1 [Doxorubicin, reference compound]
IC50 [3]: 2.08 µM | IC50 [4]: 2.52 µM

melting point: 106 to 108 °C
SMILES: Fc1cc(F)c(-c2c(Cl)nc3nccn3c2N2CCCCCC2)c(F)c1 [Example 1, 5-azepan-1-yl-7-chloro-6-(2,4,6-trifluorophenyl)imidazo[1,2-a]pyrimidine]
IC50 [5]: 0.259 µM

SMILES: Fc1cc(F)c(-c2c(Cl)nc3nccn3c2N2CCCCC2)c(F)c1 [Example 2, 7-Chloro-5-piperidin-1-yl-6-(2,4,6-trifluorophenyl)imidazo[1,2-a]pyrimidine]
IC50 [5]: 0.396 µM

melting point: 155 to 157 °C
SMILES: Fc1cc(F)c(-c2c(Cl)nc3nccn3c2NCC(F)(F)F)c(F)c1 [Example 3, 7-chloro-N-(2,2,2-trifluoroethyl)-6-(2,4,6-trifluorophenyl)imidazo[1,2-a]pyrimidin-5-amine]
IC50 [5]: 0.742 µM

SMILES: Fc1cc(F)c(-c2c(Cl)nc3nccn3c2C2CCCCCC2)c(F)c1 [Example 5, 7-Chloro-5-cycloheptyl-6-(2,4,6-trifluorophenyl)imidazo[1,2-a]pyrimidine]
IC50 [5]: 0.207 µM

SMILES: O=C1c2c(O)ccc(O)c2C(=O)c2c(NCCNCCO)ccc(NCCNCCO)c21 [Mitoxantrone, reference compound]
IC50 [6]: 1.93 µM | IC50 [3]: 0.161 µM

Reference: patent US7285555B2, “6-aryl-7-halo-imidazo[1,2-a]pyrimidines as anticancer agents” (Wyeth Holdings Corporation, priority 2003, dated 2007)
